ChEMBL document CHEMBL4138146, “A Schmidt rearrangement-mediated synthesis of novel tetrahydro-benzo[1,4]diazepin-5-ones as potential anticancer and antiprotozoal agents” (Eur J Med Chem, 2017)

Tests used:
Type in all cases: functional
CCRF-CEM = assay: Growth inhibition of human CCRF-CEM cells assessed as cell growth at 10 uM incubated for 48 hrs by sulforhodamine B assay relative to control; conditions: read-out: Activity
RPMI-8226 = assay: Growth inhibition of human RPMI8226 cells assessed as cell growth at 10 uM incubated for 48 hrs by sulforhodamine B assay relative to control; conditions: RPMI-8226, 48 h, read-out: Activity
HOP-62 = assay: Growth inhibition of human HOP62 cells assessed as cell growth at 10 uM incubated for 48 hrs by sulforhodamine B assay relative to control; conditions: HOP-62, 48 h, read-out: Activity
HOP-92 = assay: Growth inhibition of human HOP92 cells assessed as cell growth at 10 uM incubated for 48 hrs by sulforhodamine B assay relative to control; conditions: HOP-92, 48 h, read-out: Activity
NCI-H226 = assay: Growth inhibition of human NCI-H226 cells assessed as cell growth at 10 uM incubated for 48 hrs by sulforhodamine B assay relative to control; conditions: NCI-H226, 48 h, read-out: Activity
NCI-H23 = assay: Growth inhibition of human NCI-H23 cells assessed as cell growth at 10 uM incubated for 48 hrs by sulforhodamine B assay relative to control; conditions: NCI-H23, 48 h, read-out: Activity
NCI-H322M = assay: Growth inhibition of human NCI-H322M cells assessed as cell growth at 10 uM incubated for 48 hrs by sulforhodamine B assay relative to control; conditions: read-out: Activity
NCI-H460 = assay: Growth inhibition of human NCI-H460 cells assessed as cell growth at 10 uM incubated for 48 hrs by sulforhodamine B assay relative to control; conditions: NCI-H460, 48 h, read-out: Activity
NCI-H522 = assay: Growth inhibition of human NCI-H522 cells assessed as cell growth at 10 uM incubated for 48 hrs by sulforhodamine B assay relative to control; conditions: NCI-H522, 48 h, read-out: Activity
COLO 205 = assay: Growth inhibition of human COLO205 cells assessed as cell growth at 10 uM incubated for 48 hrs by sulforhodamine B assay relative to control; conditions: COLO 205, 48 h, read-out: Activity
HCC 2998 = assay: Growth inhibition of human HCC2998 cells assessed as cell growth at 10 uM incubated for 48 hrs by sulforhodamine B assay relative to control; conditions: HCC 2998, 48 h, read-out: Activity
HCT-116 = assay: Growth inhibition of human HCT116 cells assessed as cell growth at 10 uM incubated for 48 hrs by sulforhodamine B assay relative to control; conditions: HCT-116, 48 h, read-out: Activity
HT-29 = assay: Growth inhibition of human HT-29 cells assessed as cell growth at 10 uM incubated for 48 hrs by sulforhodamine B assay relative to control; conditions: HT-29, 48 h, read-out: Activity
KM12 = assay: Growth inhibition of human KM12 cells assessed as cell growth at 10 uM incubated for 48 hrs by sulforhodamine B assay relative to control; conditions: KM12, 48 h, read-out: Activity
SW-620 = assay: Growth inhibition of human SW620 cells assessed as cell growth at 10 uM incubated for 48 hrs by sulforhodamine B assay relative to control; conditions: SW-620, 48 h, read-out: Activity
SF-268 = assay: Growth inhibition of human SF268 cells assessed as cell growth at 10 uM incubated for 48 hrs by sulforhodamine B assay relative to control; conditions: SF-268, 48 h, read-out: Activity
SNB-75 = assay: Growth inhibition of human SNB75 cells assessed as cell growth at 10 uM incubated for 48 hrs by sulforhodamine B assay relative to control; conditions: SNB-75, 48 h, read-out: Activity
U-251 = assay: Growth inhibition of human U251 cells assessed as cell growth at 10 uM incubated for 48 hrs by sulforhodamine B assay relative to control; conditions: U-251, 48 h, read-out: Activity
LOX IMVI = assay: Growth inhibition of human LOXIMVI cells assessed as cell growth at 10 uM incubated for 48 hrs by sulforhodamine B assay relative to control; conditions: read-out: Activity
SK-MEL-2 = assay: Growth inhibition of human SK-MEL-2 cells assessed as cell growth at 10 uM incubated for 48 hrs by sulforhodamine B assay relative to control; conditions: SK-MEL-2, 48 h, read-out: Activity
SK-MEL-5 = assay: Growth inhibition of human SK-MEL-5 cells assessed as cell growth at 10 uM incubated for 48 hrs by sulforhodamine B assay relative to control; conditions: SK-MEL-5, 48 h, read-out: Activity
OVCAR-5 = assay: Growth inhibition of human OVCAR5 cells assessed as cell growth at 10 uM incubated for 48 hrs by sulforhodamine B assay relative to control; conditions: OVCAR-5, 48 h, read-out: Activity
OVCAR-8 = assay: Growth inhibition of human OVCAR8 cells assessed as cell growth at 10 uM incubated for 48 hrs by sulforhodamine B assay relative to control; conditions: OVCAR-8, 48 h, read-out: Activity
NCI/ADR-RES = assay: Growth inhibition of human NCI/ADR-RES cells assessed as cell growth at 10 uM incubated for 48 hrs by sulforhodamine B assay relative to control; conditions: read-out: Activity
786-0 = assay: Growth inhibition of human 786-0 cells assessed as cell growth at 10 uM incubated for 48 hrs by sulforhodamine B assay relative to control; conditions: 786-0, 48 h, read-out: Activity
A498 = assay: Growth inhibition of human A498 cells assessed as cell growth at 10 uM incubated for 48 hrs by sulforhodamine B assay relative to control; conditions: A498, 48 h, read-out: Activity
ACHN = assay: Growth inhibition of human ACHN cells assessed as cell growth at 10 uM incubated for 48 hrs by sulforhodamine B assay relative to control; conditions: read-out: Activity
CAKI-1 = assay: Growth inhibition of human Caki1 cells assessed as cell growth at 10 uM incubated for 48 hrs by sulforhodamine B assay relative to control; conditions: CAKI-1, 48 h, read-out: Activity
RXF 393 = assay: Growth inhibition of human RXF393 cells assessed as cell growth at 10 uM incubated for 48 hrs by sulforhodamine B assay relative to control; conditions: RXF 393, 48 h, read-out: Activity
SN12C = assay: Growth inhibition of human SN12C cells assessed as cell growth at 10 uM incubated for 48 hrs by sulforhodamine B assay relative to control; conditions: read-out: Activity
DU-145 = assay: Growth inhibition of human DU145 cells assessed as cell growth at 10 uM incubated for 48 hrs by sulforhodamine B assay relative to control; conditions: DU-145, 48 h, read-out: Activity
Hs-578T = assay: Growth inhibition of human Hs 578T cells assessed as cell growth at 10 uM incubated for 48 hrs by sulforhodamine B assay relative to control; conditions: read-out: Activity
BT-549 = assay: Growth inhibition of human BT549 cells assessed as cell growth at 10 uM incubated for 48 hrs by sulforhodamine B assay relative to control; conditions: BT-549, 48 h, read-out: Activity

Row | SMILES | growth at 10 µM (CCRF-CEM) [%] | growth at 10 µM (RPMI-8226) [%] | growth at 10 µM (HOP-62) [%] | growth at 10 µM (HOP-92) [%] | growth at 10 µM (NCI-H226) [%] | growth at 10 µM (NCI-H23) [%] | growth at 10 µM (NCI-H322M) [%] | growth at 10 µM (NCI-H460) [%] | growth at 10 µM (NCI-H522) [%] | growth at 10 µM (COLO 205) [%] | growth at 10 µM (HCC 2998) [%] | growth at 10 µM (HCT-116) [%] | growth at 10 µM (HT-29) [%] | growth at 10 µM (KM12) [%] | growth at 10 µM (SW-620) [%] | growth at 10 µM (SF-268) [%] | growth at 10 µM (SNB-75) [%] | growth at 10 µM (U-251) [%] | growth at 10 µM (LOX IMVI) [%] | growth at 10 µM (SK-MEL-2) [%] | further results
1 | Cc1ccc2[nH]c(=O)c(C3CNC(=O)c4ccccc4N3)cc2c1 (centres undefined) | 97.4 | 102 | 97.1 | 110 | 109 | 97.1 | 110 | 106 | 93.6 | 107 | 107 | 106 | 104 | 102 | 106 | 99.5 | 97.4 | 99.5 | 96.8 | 110 | growth at 10 µM (SK-MEL-5): 98.6%; growth at 10 µM (OVCAR-5): 92.9%; growth at 10 µM (OVCAR-8): 113%; growth at 10 µM (NCI/ADR-RES): 108%; growth at 10 µM (786-0): 103%; growth at 10 µM (A498): 93%; growth at 10 µM (ACHN): 103%; growth at 10 µM (CAKI-1): 92.1%; growth at 10 µM (RXF 393): 109%; growth at 10 µM (SN12C): 99.7%; growth at 10 µM (DU-145): 106%; growth at 10 µM (Hs-578T): 105%; growth at 10 µM (BT-549): 99.4%
2 | O=C1CC(c2cc3ccccc3[nH]c2=O)Nc2ccccc21 (centres undefined) | 106 | 107 | 100 | 108 | 96.5 | 97.8 | 102 | 105 | 90.7 | 115 | 103 | 91.6 | 99.5 | 105 | 104 | 101 | 90.4 | 99.7 | 98.2 | 98.3 | growth at 10 µM (SK-MEL-5): 103%; growth at 10 µM (OVCAR-5): 106%; growth at 10 µM (OVCAR-8): 108%; growth at 10 µM (NCI/ADR-RES): 108%; growth at 10 µM (786-0): 93.9%; growth at 10 µM (A498): 79.4%; growth at 10 µM (ACHN): 99.9%; growth at 10 µM (CAKI-1): 95.2%; growth at 10 µM (RXF 393): 99.7%; growth at 10 µM (SN12C): 93.3%; growth at 10 µM (DU-145): 105%; growth at 10 µM (Hs-578T): 99.7%; growth at 10 µM (BT-549): 94.3%
3 | CCCCn1c(=O)c(C2CNC(=O)c3ccccc3N2)cc2ccccc21 (centres undefined) | 110 | 109 | 91.8 | 95.2 | 111 | 95 | 111 | 102 | 92.5 | 111 | 108 | 94.9 | 103 | 101 | 99.2 | 98.9 | 84 | 98 | 97.2 | 106 | growth at 10 µM (SK-MEL-5): 102%; growth at 10 µM (OVCAR-5): 96.3%; growth at 10 µM (OVCAR-8): 114%; growth at 10 µM (NCI/ADR-RES): 100%; growth at 10 µM (786-0): 92.4%; growth at 10 µM (A498): 88.7%; growth at 10 µM (ACHN): 98.2%; growth at 10 µM (CAKI-1): 85.8%; growth at 10 µM (RXF 393): 111%; growth at 10 µM (SN12C): 85.7%; growth at 10 µM (DU-145): 108%; growth at 10 µM (Hs-578T): 94.6%; growth at 10 µM (BT-549): 97.8%
